Experimental data taken from patent US8119614B2, “Substitution derivatives of N6-benzyladenosine, methods of their preparation, their use for preparation of drugs, cosmetic preparations and growth regulators, pharmaceutical preparations, cosmetic preparations and growth regulators containing these compounds” (Ustav Experimentalni Botaniky Akademie Ved Ceske Republiky, priority 2002, dated 2012).

What was measured:
[1] = system: tobacco callus Nicotiana tabacum L. cv. Wisconsin 38; experiment: Growth of cytokinin-dependent tobacco callus; assay type: cell-based; settings: for Activity (%) [10^−5 mol · l^−1 BAP = 100%]: callus growth, at concentration with highest activity; for Concentration with highest activity: fresh callus weight after four weeks
Protocol: Cytokinin-dependent tobacco callus Nicotiana tabacum L. cv. Wisconsin 38 was maintained at 25° C. in darkness on modified Murashige-Skoog medium, containing per 1 liter: 4 μmol nicotinic acid, 2.4 μmol pyridoxine hydrochloride, 1.2 μmol thiamine, 26.6 μmol glycine, 1.37 μmol glutamine, 1.8 μmol myo-inositol, 30 g of sucrose, 8 g of agar, 5.37 μmol α-naphtylacetic acid (NAA) and 0.5 μmol benzylaminopurine (BAP). Subcultivation was carried out every three weeks. Fourteen days before the bioassay, the callus tissue was transferred to the media without 6-benzylaminopurine (BAP). Biological activity was determined from the increase in fresh callus weight after four weeks of cultivation. Five replicates were prepared for each cytokinin concentration and the entire test was repeated twice. From the obtained data, the concentration with highest activity was selected for each compound tested. Relative activity of the compound at this concentration was calculated (Tab. 6). […] The cytokinins to be tested were dissolved in dimethylsulfoxide (DMSO) and the solution brought up to 10^−3M with distilled water. This stock was further diluted in the respective media used for the biotest to concentrations ranging from 10^−8M to 10^−4M.

[2] = system: Amaranthus caudatus cotyledon/hypocotyl explants; experiment: Amaranthus bioassay (betacyanin content); assay type: in vivo; settings: for Concentration with highest activity: 48 h dark; for Activity (%) [10^−5 mol · l^−1 BAP = 100%]: at concentration with highest activity
Protocol: Standard Amaranthus bioassay was performed with several modifications. The seeds of Amaranthus caudatus var. atropurpurea were surface-sterilised in 10% N-chlorobenzenesulfonamide (w/v) for 10 min and washed 5 times in deionized water. They were placed in 15 cm Petri dishes containing paper tissues saturated with deionized water. After 72 h of cultivation at 25° C. in darkness, the roots of the seedlings were cut off. The explants, consisting of two cotyledons and hypocotyls, were placed in 5 cm Petri dishes on two layers of filter paper soaked in 1 ml of incubation medium containing 10 μmol NA2HPO4-KH2PO4, pH 6.8, 5 μmol tyrosine and the cytokinin to be tested. There were 20 explants per dish. The procedure was carried out under a green safe light in a darkroom. After a 48 h of incubation at 25° C. in darkness, betacyanin was extracted by freezing the explants in 4 ml […] acetic acid. The concentration of betacyanin was determined by comparing the absorbance at 537 nm and 620 nm as follows: ΔA=[…]-[…]. From the obtained data, the concentration with highest activity was selected for each compound tested. Relative activity of the compound at this concentration was calculated (Tab. 12). […] The values shown in table 8 are means of five replicates and the entire test was repeated twice. The cytokinins to be tested were dissolved in dimethylsulfoxide (DMSO) and the solution brought up to 10^-3M with distilled water. This stock was further diluted in the respective media used for the biotest to concentrations ranging from 10^-8M to 10^-4M. […] From the data obtained (FIG. 14) the maximum effective concentration of the tested compound was calculated as well as its relative effectiveness at this concentration (Table 12). […]

HOS = experiment: In vitro cytotoxic activity, Calcein AM assay, HOS; assay type: cell-based; settings: 72 hours
[3] = system: human erythroleukaemia K562; experiment: In vitro cytotoxic activity, Calcein AM assay, K-562; assay type: cell-based; settings: 72 hours, read-out: IC 50 K-562
Source text: (§1) One of the parameters used, as the basis for cytotoxicity assays, is the metabolic activity of viable cells. For example, a microtiter assay, which uses the Calcein AM, is now widely used to quantitate cell proliferation and cytotoxicity. For instance, this assay is used in drug screening programs and in chemosensitivity testing. Because only metabolically active cells cleave Calcein AM, these assays detect viable cells exclusively. The quantity of reduced Calcein AM corresponds to the number of vital cells in the culture.
(§2) Human T-lymphoblastic leukemia cell line CEM; promyelocytic HL-60 and monocytic U937 leukemias; breast carcinoma cell lines MCF-7; cervical carcinoma cells HELA; mouse fibroblasts NIH3T3; human erythroleukaemia K562 and human malignant melanoma cells G361 were used for routine screening of compounds. The cells were maintained in Nunc/Corning 80 cm^2 plastic tissue culture flasks and cultured in cell culture medium (DMEM with 5 g/l glucose, 2 mM glutamine, 100 U/ml penicillin, 100 μg/ml streptomycin, 10% fetal calf serum and sodium bicarbonate).
(§3) The cell suspensions that were prepared and diluted according to the particular cell type and the expected target cell density (10^4 cells per well based on cell growth characteristics) were added by pipette (80 μl) into 96/well microtiter plates. Inoculates were allowed a pre-incubation period of 24 hours at 37° C. and 5% CO2 for stabilisation. Four-fold dilutions of the intended test concentration were added at time zero in 20 μl aliquots to the microtiter plate wells. Usually, test compound was evaluated at six 4-fold dilutions. In routine testing, the highest well concentration was 166.7 μM, but it can be the matter of change dependent on the agent. All drug concentrations were examined in duplicates. Incubations of cells with the test compounds lasted for 72 hours at 37° C., in 5% CO2 atmosphere and 100% humidity. At the end of incubation period, the cells were assayed by using the Calcein AM. Ten microliters of the stock solution were pipetted into each well and incubated further for 1 hours. Fluorescence (FD) was measured with the Labsystem FIA Reader Fluoroscan Ascent (UK). The tumour cell survival (GI50) was calculated using the following equitation: GI50=(FDdrug exposed well/mean FDcontrol wells)×100%. The GI50 value, the drug concentration lethal to 50% of the tumour cells, was calculated from the obtained dose response curves (FIG. 3).

[4] = system: breast carcinoma cell lines MCF-7; experiment: In vitro cytotoxic activity, Calcein AM assay, MCF7; assay type: cell-based, human; settings: 72 hours, read-out: IC 50 MCF7
Source text: as §1, §2, §3

mouse fibroblasts NIH3T3 = experiment: In vitro cytotoxic activity, Calcein AM assay, NIH-3T3; assay type: cell-based; settings: 72 hours, read-out: IC 50 NIH-3T3
Source text: as §1, §2, §3

[5] = system: Human T-lymphoblastic leukemia cell line CEM; experiment: In vitro cytotoxic activity, Calcein AM assay, CEM; assay type: cell-based; settings: 72 hours
Source text: as §1, §2, §3

promyelocytic HL-60 = experiment: In vitro cytotoxic activity, Calcein AM assay, HL60; assay type: cell-based, human; settings: 72 hours, read-out: IC 50 HL60
Source text: as §1, §2, §3

[6] = system: Triticum aestivum cv. Hereward; experiment: Senescence inhibition on winter wheat leaf segments (chlorophyll retention); assay type: in vivo; settings: for Concentration with highest activity: chlorophyll retention in excised wheat leaf tips, 96 h dark; for Activity (%) [10^−4 mol · l^−1 BAP = 100%]: chlorophyll retention, at concentration with highest activity
Protocol: Seeds of winter wheat, Triticum aestivum cv. Hereward, were washed under running water for 24 hours and then sown on vermiculite soaked with Knop's solution. They were placed in the grown chamber at 15° C. with a 16/8 h light period at 50 μmol·m^−2·s^−1. After 7 days, the first leaf was fully developed and the second leaf had started to grow. A tip section of the first leaf, approximately 35 mm long, was removed from 5 seedlings and trimmed slightly to a combined weight of 100 mg. The basal ends of the five leaf tips were placed in the wells of a microtiter polystyrene plate containing 150 μl of a cytokinin solution each. The entire plate was inserted into a plastic box lined with paper tissues soaked in distilled water to prevent leaf sections from drying out. After a 96 h incubation in the dark at 25° C., the leaves were removed and chlorophyll extracted by heating at 80° C. for 10 min in 5 ml of 80% ethanol (v/v). The sample volume was then restored to 5 ml by the addition of 80% ethanol (v/v). The absorbency of the extract was recorded at 665 nm. In addition, chlorophyll extracts from fresh leaves and leaf tips incubated in deionised water were measured. From the obtained data, the concentration with highest activity was selected for each compound tested. Relative activity of the compound at this concentration was calculated (Tab. 10). The activity obtained for 10^−4 M 6-benzylaminopurine (BAP) was postulated as 100%. The values shown are means of five replicates and the whole experiment was repeated twice. The cytokinins to be tested were dissolved in dimethylsulfoxide (DMSO) and the solution brought up to 10^−3M with distilled water. This stock was further diluted in distilled water to concentrations ranging from 10^−8M to 10^−4M.

| Compound | Activity (%) [10^−5 mol · l^−1 BAP = 100%] [1] | Concentration with highest activity [1] | Concentration with highest activity [2] | Activity (%) [10^−5 mol · l^−1 BAP = 100%] [2] | IC50 (HOS) | IC50 [3] | IC50 [4] | IC50 (mouse fibroblasts NIH3T3) | IC50 [5] | IC50 (promyelocytic HL-60) | Concentration with highest activity [6] | Activity (%) [10^−4 mol · l^−1 BAP = 100%] [6] |
| --- | --- | --- | --- | --- | --- | --- | --- | --- | --- | --- | --- | --- |
| OC[C@H]1O[C@@H](n2cnc3c(NCc4cc(F)c(F)cc4F)ncnc32)[C@H](O)[C@@H]1O [2,4,5-trifluorobenzylamino, 6-(2,4,5-trifluorobenzylamino)purine riboside] | 95 ± 3% | 10^−5 mol · l^−1 | 10^−4 mol · l^−1 | 120 ± 1% |  |  |  |  |  |  |  |  |
| OC[C@H]1O[C@@H](n2cnc3c(NCc4ccc(Cl)cc4Cl)ncnc32)[C@H](O)[C@@H]1O [2,4-dichlorobenzylamino, 6-(2,4-dichlorobenzylamino)purine riboside] |  |  | 10^−4 mol · l^−1 | 3 ± 2% | > 167 µM | 85.7 µM | 127 µM | > 167 µM | 86.7 µM | 96.3 µM | 10^−5 mol · l^−1 | 5 ± 1% |
| COc1ccc(CNc2ncnc3c2ncn3[C@@H]2O[C@H](CO)[C@@H](O)[C@H]2O)cc1O [3-hydroxy-4-methoxybenzylamino, 6-(3-hydroxy-4-methoxybenzylamino)purine riboside] |  |  | 10^−4 mol · l^−1 | 0% | > 167 µM | > 167 µM | > 167 µM | > 167 µM | > 167 µM | > 167 µM | 10^−4 mol · l^−1 | 22 ± 5% |
| OC[C@H]1O[C@@H](n2cnc3c(NCc4ccc(F)cc4Cl)ncnc32)[C@H](O)[C@@H]1O [2-chloro-4-fluorobenzylamino, 6-(2-chloro-4-fluorobenzylamino)purine riboside] | 98 ± 4% | 10^−5 mol · l^−1 | 10^−4 mol · l^−1 | 115 ± 1% | > 167 µM | 11.7 µM | > 167 µM | > 167 µM | 20.9 µM | 9 µM |  |  |
| OC[C@H]1O[C@@H](n2cnc3c(NCc4c(F)ccc(F)c4F)ncnc32)[C@H](O)[C@@H]1O [2,3,6-trifluorobenzylamino, 6-(2,3,6-trifluorobenzylamino)purine riboside] | 92 ± 2% | 10^−5 mol · l^−1 | 10^−4 mol · l^−1 | 94 ± 1% | > 167 µM | > 167 µM | > 167 µM | > 167 µM |  | 13 µM | 10^−4 mol · l^−1 | 133 ± 14% |
| OC[C@H]1O[C@@H](n2cnc3c(NCc4ccc(F)cc4F)ncnc32)[C@H](O)[C@@H]1O [2,4-difluorobenzylamino, 6-(2,4-difluorobenzylamino)purine riboside] |  |  | 10^−4 mol · l^−1 | 88 ± 7% | > 167 µM | 7.4 µM | > 167 µM | > 167 µM | 7.1 µM | 3.4 µM | 10^−4 mol · l^−1 | 171 ± 8% |
| OC[C@H]1O[C@@H](n2cnc3c(NCc4cccc(I)c4)ncnc32)[C@H](O)[C@@H]1O [3-jodobenzylamino, 6-(3-iodobenzylamino)purine riboside] | 47 ± 12% | 10^−6 mol · l^−1 | 10^−5 mol · l^−1 | 102 ± 18% |  |  |  |  |  |  | 10^−4 mol · l^−1 | 98 ± 4% |
